In PubChem BioAssay AID248 (DTP/NCI, 2004):
Values joined by “and” are separate entries in the source; they are usually repeats but may differ in a detail not shown here. Identical values can stand only once. Inconclusive results and toxic doses are left out. No stated cut-off is given here; in the data, active means T/C of 150% or more; inactive means T/C below 125%.

Test system: L1210 leukemia ip in BDF1 mice, survival T/C
Test: NCI In Vivo Anticancer Drug Screen. Data for tumor model L1210 Leukemia (intraperitoneal) in B6D2F1 (BDF1) mice
Details: endpoint: mean survival time, higher = longer survival
In short: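 Value reflects the ratio of survival in compound-treated mice to survival in vehicle-treated controls, with both groups carrying the same transplanted tumor.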

[1] = dose: 100.0 mg/kg/injection, schedule: Q01DX009 (ip), vehicle: Klucel (hydroxypropylcellulose) (HPC)
[2] = dose: 100.0 mg/kg/injection, schedule: Q04DX003 (ip), vehicle: Klucel (hydroxypropylcellulose) (HPC)
[3] = dose: 200.0 mg/kg/injection, schedule: Q01DX009 (ip), vehicle: Klucel (hydroxypropylcellulose) (HPC)
[4] = dose: 200.0 mg/kg/injection, schedule: Q04DX003 (ip), vehicle: Klucel (hydroxypropylcellulose) (HPC)
[5] = dose: 400.0 mg/kg/injection, schedule: Q04DX003 (ip), vehicle: Klucel (hydroxypropylcellulose) (HPC)
[6] = dose: 50.0 mg/kg/injection, schedule: Q01DX009 (ip), vehicle: saline with Tween-80
[7] = dose: 100.0 mg/kg/injection, schedule: Q01DX009 (ip), vehicle: saline with Tween-80
[8] = dose: 200.0 mg/kg/injection, schedule: Q01DX009 (ip), vehicle: saline with Tween-80
[9] = dose: 100.0 mg/kg/injection, schedule: Q04DX003 (ip), vehicle: saline with Tween-80
[10] = dose: 200.0 mg/kg/injection, schedule: Q04DX003 (ip), vehicle: saline with Tween-80
[11] = dose: 400.0 mg/kg/injection, schedule: Q04DX003 (ip), vehicle: saline with Tween-80
[12] = dose: 50.0 mg/kg/injection, schedule: Q01DX001 (ip), vehicle: carboxymethylcellulose (CMC)
[13] = dose: 100.0 mg/kg/injection, schedule: Q01DX001 (ip), vehicle: carboxymethylcellulose (CMC)
[14] = dose: 200.0 mg/kg/injection, schedule: Q01DX001 (ip), vehicle: carboxymethylcellulose (CMC)
[15] = dose: 400.0 mg/kg/injection, schedule: Q01DX001 (ip), vehicle: carboxymethylcellulose (CMC)
[16] = dose: 100.0 mg/kg/injection, schedule: Q04DX002 (ip), vehicle: saline with Tween-80
[17] = dose: 200.0 mg/kg/injection, schedule: Q04DX002 (ip), vehicle: saline with Tween-80
[18] = dose: 400.0 mg/kg/injection, schedule: Q04DX002 (ip), vehicle: saline with Tween-80
[19] = dose: 100.0 mg/kg/injection, schedule: Q04DX003 (ip), vehicle: saline
[20] = dose: 200.0 mg/kg/injection, schedule: Q04DX003 (ip), vehicle: saline
[21] = dose: 400.0 mg/kg/injection, schedule: Q04DX003 (ip), vehicle: saline
[22] = dose: 100.0 mg/kg/injection, schedule: Q01DX009 (ip), vehicle: saline
[23] = dose: 100.0 mg/kg/injection, schedule: Q01DX001 (ip), vehicle: other
[24] = dose: 200.0 mg/kg/injection, schedule: Q01DX001 (ip), vehicle: other
[25] = dose: 100.0 mg/kg/injection, schedule: Q01DX001 (ip), vehicle: saline
[26] = dose: 200.0 mg/kg/injection, schedule: Q01DX001 (ip), vehicle: saline
[27] = dose: 400.0 mg/kg/injection, schedule: Q01DX001 (ip), vehicle: saline
[28] = dose: 100.0 mg/kg/injection, schedule: Q04DX002 (ip), vehicle: Klucel (hydroxypropylcellulose) (HPC)

Measured: T/C

COc1ccc(Cl)cc1NC(=O)Nc1ccc(Cl)c(Cl)c1
inactive: [1] 95 % of control | [2] 112 % of control | [3] 92 % of control | [4] 89 % of control | dose: 400.0 mg/kg/injection, schedule: Q01DX009 (ip), vehicle: Klucel (hydroxypropylcellulose) (HPC) 102 % of control | [5] 109 % of control

CC(C)(O)Cc1ccc(Br)cc1
inactive: [6] 95 % of control | [7] 103 % of control | [8] 111 % of control

CCOc1cccc(Cc2c[nH]c(=O)n(C)c2=O)c1
inactive: [2] 93 % of control | [4] 97 % of control | [5] 98 % of control

O=C(Nc1cccc2ccccc12)O/N=C/c1ccccn1
inactive: [6] 94 % of control | [7] 86 % of control and 87 % of control | [9] 87 % of control | [8] 94 % of control | [10] 90 % of control | dose: 400.0 mg/kg/injection, schedule: Q01DX009 (ip), vehicle: saline with Tween-80 107 % of control | [11] 95 % of control

O=C(NCCCl)NCC1CCCO1 (stereo not given)
inactive: dose: 50.0 mg/kg/injection, schedule: Q04DX003 (ip), vehicle: Klucel (hydroxypropylcellulose) (HPC) 103 % of control | [2] 103 % of control | [4] 103 % of control | [5] 90 % of control

COc1cc(C)cccc1=O
inactive: [12] 107 % of control | [13] 107 % of control | [14] 96 % of control | [15] 98 % of control

COc1cc(-c2nc(/C=C3\C(=O)C=Cc4ccccc43)c(O)o2)cc(OC)c1OC
inactive: [16] 93 % of control | [17] 86 % of control | [18] 93 % of control

OC(c1ccccc1)(c1ccccc1)C1CC1c1ccncc1 (stereo not given)
inactive: dose: 25.0 mg/kg/injection, schedule: Q04DX003 (ip), vehicle: saline 107 % of control | dose: 50.0 mg/kg/injection, schedule: Q04DX003 (ip), vehicle: saline 104 % of control | [19] 98 % of control | [20] 98 % of control | [21] 91 % of control

[O]=[Sn]([OH])[OH]
inactive: [22] 97 % of control | dose: 200.0 mg/kg/injection, schedule: Q01DX009 (ip), vehicle: saline 94 % of control

Clc1ccc(COC(Cn2ccnc2)c2ccc(Cl)cc2Cl)cc1 (stereo not given)
inactive: dose: 25.0 mg/kg/injection, schedule: Q04DX002 (ip), vehicle: DMSO 93 % of control | dose: 50.0 mg/kg/injection, schedule: Q04DX002 (ip), vehicle: DMSO 93 % of control | dose: 100.0 mg/kg/injection, schedule: Q04DX002 (ip), vehicle: DMSO 97 % of control

CC(=O)OC1CC2(Cl)CC1(Cl)C(Cl)=C2Cl (stereo not given)
inactive: dose: 50.0 mg/kg/injection, schedule: Q04DX003 (ip), vehicle: saline with Tween-80 105 % of control | [23] 109 % of control | [9] 106 % of control | [24] 100 % of control | dose: 400.0 mg/kg/injection, schedule: Q01DX001 (ip), vehicle: other 109 % of control | [11] 103 % of control

COC(=O)C1(C)CCCC2c3cc4c(cc3CCC21)C(=O)CC(C)O4 (stereo not given)
inactive: [15] 86 % of control

CC(=O)C(C[CH2][Hg][Cl])C(C)=O
inactive: dose: 9.37 mg/kg/injection, schedule: Q01DX001 (ip), vehicle: other 96 % of control | dose: 18.75 mg/kg/injection, schedule: Q01DX001 (ip), vehicle: other 97 % of control | dose: 37.5 mg/kg/injection, schedule: Q01DX001 (ip), vehicle: other 100 % of control

CC(/C=C/c1ccccc1)=C1/SC(=S)NC1=O
inactive: [25] 93 % of control | [26] 96 % of control | [27] 94 % of control

Cn1nnnc1/N=C/c1ccccc1
inactive: [19] 105 % of control | [20] 94 % of control | [21] 94 % of control

CCOC(=O)/C=C1\CC2c3cc(OC)c(OC)cc3CCN2CC1CC (stereo not given)
inactive: dose: 50.0 mg/kg/injection, schedule: Q01DX009 (ip), vehicle: Klucel (hydroxypropylcellulose) (HPC) 93 % of control | [1] 96 % of control | [3] 96 % of control

CCc1ccc(N=Nc2ccc(CC)cc2)cc1
inactive: [13] 98 % of control | [14] 106 % of control | [15] 101 % of control

CN(C)P(=O)(c1ccccc1)c1ccccc1
inactive: [16] 112 % of control | [17] 102 % of control | [18] 94 % of control

COc1cc2c(cc1OC)C1CCC3=C(O)CCC3=[N+]1CC2 (stereo not given)
inactive: [28] 101 % of control | dose: 200.0 mg/kg/injection, schedule: Q04DX002 (ip), vehicle: Klucel (hydroxypropylcellulose) (HPC) 86 % of control

C#CCCCCCCl
inactive: [23] 95 % of control | [24] 102 % of control

COc1cc(C(=O)c2ccccc2C(=O)O)c(OC)c2c1CCCC2
inactive: [13] 91 % of control | [14] 92 % of control | [15] 96 % of control

OC(CN1CCCCC1)c1ccncc1 (stereo not given)
inactive: dose: 75.0 mg/kg/injection, schedule: Q04DX003 (ip), vehicle: saline 94 % of control | dose: 150.0 mg/kg/injection, schedule: Q04DX003 (ip), vehicle: saline 94 % of control | dose: 300.0 mg/kg/injection, schedule: Q04DX003 (ip), vehicle: saline 96 % of control

CCOc1ccccc1C(=O)Nc1ccc(Br)cc1
inactive: [12] 91 % of control | [13] 91 % of control | [14] 96 % of control | [15] 102 % of control

CC/C(=C(\CC)c1ccc(OC)cc1)c1ccc(OC)cc1
inactive: [6] 100 % of control | [7] 89 % of control | [8] 89 % of control | [20] 87 % of control

O=CN(N=O)c1ccc(Br)cc1
inactive: dose: 75.0 mg/kg/injection, schedule: Q01DX001 (ip), vehicle: other 96 % of control | dose: 150.0 mg/kg/injection, schedule: Q01DX001 (ip), vehicle: other 101 % of control | dose: 300.0 mg/kg/injection, schedule: Q01DX001 (ip), vehicle: other 103 % of control

N#Cc1cccc(/C=C/C=C\c2ccc([N+](=O)[O-])cc2)c1
inactive: [1] 89 % of control | [3] 95 % of control

CC(C)(C)CC(C)(C)N=Cc1ccccc1
inactive: [25] 98 % of control | [26] 105 % of control | [27] 88 % of control

CSc1nc(C)c(Br)c(Nc2ccc(C(N)=O)cc2)n1
inactive: dose: 87.5 mg/kg/injection, schedule: Q01DX009 (ip), vehicle: Klucel (hydroxypropylcellulose) (HPC) 94 % of control | dose: 175.0 mg/kg/injection, schedule: Q01DX009 (ip), vehicle: Klucel (hydroxypropylcellulose) (HPC) 91 % of control | dose: 350.0 mg/kg/injection, schedule: Q01DX009 (ip), vehicle: Klucel (hydroxypropylcellulose) (HPC) 101 % of control

COc1ccc(Nc2ccc3c4c(cccc24)C(=O)N(c2ccc(OC)cc2)C3=O)cc1
inactive: [16] 92 % of control | [17] 95 % of control | [18] 92 % of control

CCNC(=O)C1C(c2ccccc2)C1c1ccccc1 (stereo not given)
inactive: dose: 25.0 mg/kg/injection, schedule: Q04DX002 (ip), vehicle: Klucel (hydroxypropylcellulose) (HPC) 97 % of control | dose: 50.0 mg/kg/injection, schedule: Q04DX002 (ip), vehicle: Klucel (hydroxypropylcellulose) (HPC) 102 % of control | [28] 102 % of control

O=C(O)C1CCSS1 (stereo not given)
inactive: dose: 50.0 mg/kg/injection, schedule: Q01DX009 (ip), vehicle: saline 89 % of control | [22] 92 % of control | [19] 101 % of control | [20] 104 % of control

O=C1COC(=O)c2ccccc2O1
inactive: [9] 101 % of control | [10] 97 % of control | [11] 93 % of control

Cc1cn(C)c2nccnc12
inactive: dose: 25.0 mg/kg/injection, schedule: Q01DX009 (ip), vehicle: water 104 % of control | dose: 50.0 mg/kg/injection, schedule: Q01DX009 (ip), vehicle: water 110 % of control | dose: 100.0 mg/kg/injection, schedule: Q01DX009 (ip), vehicle: water 98 % of control
